Experiments:
[1] = target: Serine/threonine-protein kinase 4 (Homo sapiens) (UniProt Q13043); assay: Inhibition of wild-type human full length MST1 (M1 to F487 residues) expressed in bacterial expression system assessed as residual activity at 1 uM by Kinomescan method relative to control
[2] = target: Mitogen-activated protein kinase 15 (Homo sapiens) (UniProt Q8TD08); assay: Inhibition of wild-type human partial length ERK8 (M1 to P437 residues) expressed in bacterial expression system assessed as residual activity at 1 uM by Kinomescan method relative to control
[3] = target: Serine/threonine-protein kinase 26 (Homo sapiens) (UniProt Q9P289); assay: Inhibition of wild-type human full length MST4 (M1 to P416 residues) expressed in mammalian expression system assessed as residual activity at 1 uM by Kinomescan method relative to control
[4] = target: TRAF2 and NCK-interacting protein kinase (Homo sapiens) (UniProt Q9UKE5); assay: Inhibition of wild-type human partial length TNIK (D4 to K311 residues) expressed in bacterial expression system assessed as residual activity at 1 uM by Kinomescan method relative to control
[5] = target: Tyrosine-protein kinase ZAP-70 (Homo sapiens) (UniProt P43403); assay: Inhibition of wild-type human partial length ZAP70 (D20 to G299 residues) expressed in mammalian expression system assessed as residual activity at 1 uM by Kinomescan method relative to control
[6] = test system: MV4-11; assay: Growth inhibition of human MV411 cells; format: functional; details: Homo sapiens, MV4-11
[7] = target: Serine/threonine-protein kinase DCLK2 (Homo sapiens) (UniProt Q8N568); assay: Inhibition of wild-type human partial length DCAMKL2 (K273 to V664 residues) expressed in bacterial expression system assessed as residual activity at 1 uM by Kinomescan method relative to control
[8] = target: Vascular endothelial growth factor receptor 1 (Homo sapiens) (UniProt P17948); assay: Inhibition of wild-type human partial length FLT1 (R781 to F1239 residues) expressed in bacterial expression system assessed as residual activity at 1 uM by Kinomescan method relative to control
[9] = target: Atypical kinase COQ8B, mitochondrial (Homo sapiens) (UniProt Q96D53); assay: Inhibition of wild-type human full length ADCK4 (M1 to S544 residues) expressed in bacterial expression system assessed as residual activity at 1 uM by Kinomescan method relative to control
[10] = target: Death-associated protein kinase 2 (Homo sapiens) (UniProt Q9UIK4); assay: Inhibition of wild-type human full length DAPK2 (M1 to S370 residues) expressed in bacterial expression system assessed as residual activity at 1 uM by Kinomescan method relative to control
[11] = test system: Epidermal growth factor receptor (Homo sapiens), P00533 [L858R]; assay: Inhibition of human partial length EGFR L858R mutant (R669 to V1011 residues) expressed in bacterial expression system assessed as residual activity at 1 uM by Kinomescan method relative to control
[12] = target: Ribosomal protein S6 kinase alpha-6 (Homo sapiens) (UniProt Q9UK32); assay: Inhibition of wild-type human partial length C-terminal RSK4 kinase domain 2 (I401 to Y711 residues) expressed in bacterial expression system assessed as residual activity at 1 uM by Kinomescan method relative to control
[13] = target: Cyclin-dependent kinase 17 (Homo sapiens) (UniProt Q00537); assay: Inhibition of wild-type human full length PCTK2 (M1 to F523 residues) expressed in bacterial expression system assessed as residual activity at 1 uM by Kinomescan method relative to control
[14] = target: Non-receptor tyrosine-protein kinase TYK2 (Homo sapiens) (UniProt P29597); assay: Inhibition of wild-type human partial length TYK2 JH1 catalytic domain (V877 to C1187 residues) expressed in mammalian expression system assessed as residual activity at 1 uM by Kinomescan method relative to control
[15] = target: Cyclin-dependent kinase 3 (Homo sapiens) (UniProt Q00526); assay: Inhibition of wild-type human full length CDK3 (M1 to H305 residues) expressed in bacterial expression system assessed as residual activity at 1 uM by Kinomescan method relative to control
[16] = target: Serine/threonine-protein kinase PAK 5 (Homo sapiens) (UniProt Q9P286); assay: Inhibition of wild-type human partial length PAK7 (Y400 to H719 residues) expressed in bacterial expression system assessed as residual activity at 1 uM by Kinomescan method relative to control
[17] = target: Myosin light chain kinase family member 4 (Homo sapiens) (UniProt Q86YV6); assay: Inhibition of wild-type human partial length MYLK4 (V79 to S380 residues) expressed in bacterial expression system assessed as residual activity at 1 uM by Kinomescan method relative to control
[18] = target: Dual specificity protein kinase TTK (Homo sapiens) (UniProt P33981); assay: Inhibition of wild-type human partial length TTK (N505 to V798 residues) expressed in bacterial expression system assessed as residual activity at 1 uM by Kinomescan method relative to control
[19] = test system: Tyrosine-protein kinase ABL1 (Homo sapiens), P00519 [F317I]; assay: Inhibition of human non-phosphorylated ABL1 F317I mutant (S229 to K512 residues) expressed in mammalian expression system assessed as residual activity at 1 uM by Kinomescan method relative to control
[20] = target: Protein kinase C iota type (Homo sapiens) (UniProt P41743); assay: Inhibition of wild-type human partial length PRKCI (H215 to V587 residues) expressed in mammalian expression system assessed as residual activity at 1 uM by Kinomescan method relative to control
[21] = target: Interleukin-1 receptor-associated kinase 4 (Homo sapiens) (UniProt Q9NWZ3); assay: Inhibition of wild-type human partial length IRAK4 (M1 to S460 residues) expressed in mammalian expression system assessed as residual activity at 1 uM by Kinomescan method relative to control
[22] = test system: eIF-2-alpha kinase GCN2 (Homo sapiens), Q9P2K8 [S808G]; assay: Inhibition of […] human partial length GCN2 kinase domain 2 (R585 to T1018 residues) S808G mutant expressed in bacterial expression system assessed as residual activity at 1 uM by Kinomescan method relative to control
[23] = test system: Phosphatidylinositol 4,5-bisphosphate 3-kinase catalytic subunit alpha isoform (Homo sapiens), P42336 [Q546K]; assay: Inhibition of human partial length PIK3CA Q546K mutant (R108 to N1068 residues) expressed in mammalian expression system assessed as residual activity at 1 uM by Kinomescan method relative to control
[24] = target: Bone morphogenetic protein receptor type-1A (Homo sapiens) (UniProt P36894); assay: Inhibition of wild-type human partial length BMPR1A (Q214 to I532 residues) expressed in bacterial expression system assessed as residual activity at 1 uM by Kinomescan method relative to control
[25] = target: Casein kinase I isoform delta (Homo sapiens) (UniProt P48730); assay: Inhibition of wild-type human full length CSNK1D (M1 to K409 residues) expressed in bacterial expression system assessed as residual activity at 1 uM by Kinomescan method relative to control

Tyrosine-protein kinase ZAP-70 (Homo sapiens), sequence (P43403 whole entry, the tested form may be a part): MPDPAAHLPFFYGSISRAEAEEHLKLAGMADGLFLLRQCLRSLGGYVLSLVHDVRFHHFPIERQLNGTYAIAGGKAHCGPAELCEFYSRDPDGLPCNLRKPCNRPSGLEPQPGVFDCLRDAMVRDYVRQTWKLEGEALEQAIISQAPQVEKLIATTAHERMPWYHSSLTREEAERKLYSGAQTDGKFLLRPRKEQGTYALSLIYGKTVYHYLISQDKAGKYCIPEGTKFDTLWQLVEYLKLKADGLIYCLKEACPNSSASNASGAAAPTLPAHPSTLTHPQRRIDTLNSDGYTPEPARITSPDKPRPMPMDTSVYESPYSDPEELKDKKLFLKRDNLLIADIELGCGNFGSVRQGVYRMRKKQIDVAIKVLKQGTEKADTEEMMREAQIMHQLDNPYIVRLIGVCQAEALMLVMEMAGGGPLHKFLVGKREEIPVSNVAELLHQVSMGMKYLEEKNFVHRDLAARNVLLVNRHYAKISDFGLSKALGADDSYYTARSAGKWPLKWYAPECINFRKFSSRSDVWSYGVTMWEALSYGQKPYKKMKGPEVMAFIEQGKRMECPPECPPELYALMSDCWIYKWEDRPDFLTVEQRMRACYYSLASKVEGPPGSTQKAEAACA
TRAF2 and NCK-interacting protein kinase (Homo sapiens), sequence (Q9UKE5 whole entry, looked up, the tested form may be a part): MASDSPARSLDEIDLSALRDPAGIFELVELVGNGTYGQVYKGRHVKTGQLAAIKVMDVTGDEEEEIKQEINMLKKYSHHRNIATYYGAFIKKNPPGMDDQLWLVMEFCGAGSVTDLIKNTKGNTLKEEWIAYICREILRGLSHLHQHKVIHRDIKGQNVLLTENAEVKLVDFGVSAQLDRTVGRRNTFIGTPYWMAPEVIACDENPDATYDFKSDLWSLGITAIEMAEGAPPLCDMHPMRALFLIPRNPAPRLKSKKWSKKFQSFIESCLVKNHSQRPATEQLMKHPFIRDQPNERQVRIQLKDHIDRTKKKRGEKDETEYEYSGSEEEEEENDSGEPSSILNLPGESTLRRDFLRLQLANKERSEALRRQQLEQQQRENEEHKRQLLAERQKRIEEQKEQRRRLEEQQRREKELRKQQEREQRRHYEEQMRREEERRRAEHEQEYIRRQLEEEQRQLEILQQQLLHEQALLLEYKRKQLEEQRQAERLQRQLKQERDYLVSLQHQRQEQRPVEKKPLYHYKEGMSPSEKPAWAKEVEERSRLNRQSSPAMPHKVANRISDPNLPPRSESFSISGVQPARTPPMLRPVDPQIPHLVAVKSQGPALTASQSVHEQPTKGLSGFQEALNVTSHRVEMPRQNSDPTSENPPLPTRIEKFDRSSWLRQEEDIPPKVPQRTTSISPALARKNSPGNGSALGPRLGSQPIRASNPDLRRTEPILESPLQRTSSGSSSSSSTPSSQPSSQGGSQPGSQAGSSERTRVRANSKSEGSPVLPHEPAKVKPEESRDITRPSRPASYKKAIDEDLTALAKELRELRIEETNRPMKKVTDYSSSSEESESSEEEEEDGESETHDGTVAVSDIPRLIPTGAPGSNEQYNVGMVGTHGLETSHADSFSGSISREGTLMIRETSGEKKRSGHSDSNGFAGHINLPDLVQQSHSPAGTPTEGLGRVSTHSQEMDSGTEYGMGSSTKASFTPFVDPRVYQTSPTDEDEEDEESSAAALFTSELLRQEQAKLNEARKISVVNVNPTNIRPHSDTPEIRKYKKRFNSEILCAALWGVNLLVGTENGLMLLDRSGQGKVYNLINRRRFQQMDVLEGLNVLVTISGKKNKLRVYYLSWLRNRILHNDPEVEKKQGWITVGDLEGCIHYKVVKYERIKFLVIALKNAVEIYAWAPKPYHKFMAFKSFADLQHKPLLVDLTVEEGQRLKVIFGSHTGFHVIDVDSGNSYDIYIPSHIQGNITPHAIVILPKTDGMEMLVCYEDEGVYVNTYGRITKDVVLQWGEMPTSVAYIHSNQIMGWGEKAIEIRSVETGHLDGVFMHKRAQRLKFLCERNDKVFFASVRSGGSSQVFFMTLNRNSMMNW
Phosphatidylinositol 4,5-bisphosphate 3-kinase catalytic subunit alpha isoform (Homo sapiens), P42336 [Q546K], sequence (P42336 whole entry Q546K, the tested form may be a part, canonical isoform): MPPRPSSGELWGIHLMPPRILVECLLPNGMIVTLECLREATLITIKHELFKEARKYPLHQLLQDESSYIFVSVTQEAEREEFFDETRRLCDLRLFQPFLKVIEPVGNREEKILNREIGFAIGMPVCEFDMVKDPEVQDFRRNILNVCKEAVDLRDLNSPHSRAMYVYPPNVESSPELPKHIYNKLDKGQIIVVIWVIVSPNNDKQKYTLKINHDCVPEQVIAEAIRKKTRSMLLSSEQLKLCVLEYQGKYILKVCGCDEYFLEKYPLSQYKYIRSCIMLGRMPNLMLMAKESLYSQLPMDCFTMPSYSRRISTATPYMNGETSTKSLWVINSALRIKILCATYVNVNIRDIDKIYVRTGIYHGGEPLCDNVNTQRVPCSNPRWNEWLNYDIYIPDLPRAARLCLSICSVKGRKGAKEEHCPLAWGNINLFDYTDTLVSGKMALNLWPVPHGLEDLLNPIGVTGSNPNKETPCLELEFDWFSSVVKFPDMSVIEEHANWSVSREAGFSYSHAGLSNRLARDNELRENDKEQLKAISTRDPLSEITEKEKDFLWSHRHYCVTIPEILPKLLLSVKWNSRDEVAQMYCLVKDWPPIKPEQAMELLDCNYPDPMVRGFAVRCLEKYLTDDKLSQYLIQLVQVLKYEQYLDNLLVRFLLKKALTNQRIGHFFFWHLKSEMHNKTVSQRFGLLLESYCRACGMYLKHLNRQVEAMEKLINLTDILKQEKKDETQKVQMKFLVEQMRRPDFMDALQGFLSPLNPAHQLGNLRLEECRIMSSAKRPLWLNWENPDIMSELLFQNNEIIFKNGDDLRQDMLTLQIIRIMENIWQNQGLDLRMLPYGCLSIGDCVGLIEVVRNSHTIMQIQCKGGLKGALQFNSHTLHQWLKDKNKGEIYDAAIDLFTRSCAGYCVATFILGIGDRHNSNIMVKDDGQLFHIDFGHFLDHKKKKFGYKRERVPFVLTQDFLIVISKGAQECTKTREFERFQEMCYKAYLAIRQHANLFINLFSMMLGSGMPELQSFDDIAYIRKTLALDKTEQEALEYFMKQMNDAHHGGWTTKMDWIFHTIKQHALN
eIF-2-alpha kinase GCN2 (Homo sapiens), Q9P2K8 [S808G], sequence (Q9P2K8 whole entry S808G, the tested form may be a part, canonical isoform): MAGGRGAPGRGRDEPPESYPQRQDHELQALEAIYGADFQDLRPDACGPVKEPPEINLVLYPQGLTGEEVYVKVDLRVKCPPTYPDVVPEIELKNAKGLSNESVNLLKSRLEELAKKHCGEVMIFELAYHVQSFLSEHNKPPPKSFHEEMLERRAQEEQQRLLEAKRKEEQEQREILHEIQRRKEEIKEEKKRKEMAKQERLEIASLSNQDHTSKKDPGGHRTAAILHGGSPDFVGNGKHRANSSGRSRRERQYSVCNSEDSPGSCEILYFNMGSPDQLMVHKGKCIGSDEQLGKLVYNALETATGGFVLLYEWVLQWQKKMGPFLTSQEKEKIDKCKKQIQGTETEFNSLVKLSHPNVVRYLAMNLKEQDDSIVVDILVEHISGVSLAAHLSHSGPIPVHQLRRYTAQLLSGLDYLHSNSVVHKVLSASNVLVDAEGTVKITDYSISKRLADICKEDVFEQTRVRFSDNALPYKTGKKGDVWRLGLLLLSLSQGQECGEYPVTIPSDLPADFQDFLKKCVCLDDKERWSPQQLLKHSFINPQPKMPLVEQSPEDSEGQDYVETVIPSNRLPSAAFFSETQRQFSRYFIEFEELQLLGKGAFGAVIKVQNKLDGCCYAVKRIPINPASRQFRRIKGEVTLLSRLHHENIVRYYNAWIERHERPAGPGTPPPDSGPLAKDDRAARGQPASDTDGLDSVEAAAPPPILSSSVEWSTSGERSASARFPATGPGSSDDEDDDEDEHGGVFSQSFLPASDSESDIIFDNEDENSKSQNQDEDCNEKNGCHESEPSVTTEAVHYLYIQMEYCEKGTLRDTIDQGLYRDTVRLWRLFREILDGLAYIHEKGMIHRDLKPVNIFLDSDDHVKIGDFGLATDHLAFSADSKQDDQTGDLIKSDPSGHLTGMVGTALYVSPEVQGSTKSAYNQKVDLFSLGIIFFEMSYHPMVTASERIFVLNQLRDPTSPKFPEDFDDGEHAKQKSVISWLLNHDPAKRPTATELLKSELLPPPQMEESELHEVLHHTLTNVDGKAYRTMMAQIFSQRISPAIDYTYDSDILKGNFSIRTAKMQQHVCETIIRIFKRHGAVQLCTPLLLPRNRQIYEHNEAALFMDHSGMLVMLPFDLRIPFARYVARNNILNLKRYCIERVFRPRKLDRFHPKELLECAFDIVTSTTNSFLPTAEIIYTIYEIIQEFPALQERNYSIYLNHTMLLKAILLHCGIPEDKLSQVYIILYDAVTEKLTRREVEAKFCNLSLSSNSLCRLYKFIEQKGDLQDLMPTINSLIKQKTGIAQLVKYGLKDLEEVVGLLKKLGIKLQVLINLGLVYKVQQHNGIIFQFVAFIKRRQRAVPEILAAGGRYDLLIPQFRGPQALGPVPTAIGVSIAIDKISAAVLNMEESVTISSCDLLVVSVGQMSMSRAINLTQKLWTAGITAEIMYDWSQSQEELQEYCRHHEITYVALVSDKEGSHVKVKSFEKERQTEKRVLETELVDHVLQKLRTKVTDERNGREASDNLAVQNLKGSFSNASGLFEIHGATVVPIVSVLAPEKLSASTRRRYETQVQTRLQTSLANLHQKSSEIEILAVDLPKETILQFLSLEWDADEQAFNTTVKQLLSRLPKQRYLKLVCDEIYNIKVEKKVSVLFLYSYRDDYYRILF
Death-associated protein kinase 2 (Homo sapiens), sequence (Q9UIK4 whole entry, looked up, the tested form may be a part): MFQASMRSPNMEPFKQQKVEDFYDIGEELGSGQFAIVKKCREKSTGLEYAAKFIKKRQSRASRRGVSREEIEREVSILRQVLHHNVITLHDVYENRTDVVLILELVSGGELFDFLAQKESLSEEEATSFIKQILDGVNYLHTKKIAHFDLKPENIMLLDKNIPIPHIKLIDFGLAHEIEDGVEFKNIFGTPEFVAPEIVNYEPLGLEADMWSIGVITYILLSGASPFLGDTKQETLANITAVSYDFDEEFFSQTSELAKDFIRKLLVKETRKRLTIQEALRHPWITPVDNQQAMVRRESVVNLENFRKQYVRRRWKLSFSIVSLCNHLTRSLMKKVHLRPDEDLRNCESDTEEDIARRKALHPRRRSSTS

C=CC(=O)Nc1cc(Nc2cc(-c3cccc(NC(=O)c4ccc(C(C)(C)C)cc4)c3C)cn(C)c2=O)ccc1C(=O)N1CCOCC1
Activity [1]: 95%
Activity [2]: 100%
Activity [3]: 88%
Activity [4]: 97%
Activity [5]: 100%
GI50 [6]: 2100 nM
Activity [7]: 89%
Activity [8]: 97%
Activity [9]: 100%
Activity [10]: 99%
Activity [11]: 100%
Activity [12]: 89%
Activity [13]: 100%
Activity [14]: 74%
Activity [15]: 97%
Activity [16]: 98%
Activity [17]: 88%
Activity [18]: 99%
Activity [19]: 78%
Activity [20]: 100%
Activity [21]: 100%
Activity [22]: 100%
Activity [23]: 87%
Activity [24]: 98%
Activity [25]: 99%

Reference: ChEMBL document CHEMBL4024706 (Eur J Med Chem, 2017)
